What was measured:
Assay type in all cases: biochemical
[1] = biological target: EGFR Δ746-750/C797S mutant (Homo sapiens (Human), UniProt P00533, C797S/DEL746-750); assay: HotSpot radiometric kinase assay, EGFR Δ746-750/C797S mutant; conditions: 10 μM ATP
Procedure, shortened: (§1)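 IC50 values derive from curve fits of 33P incorporation measured by P81 filter binding. ATP was 10 μM final; incubation lasted 120 min at room temperature after ~20 min compound preincubation.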

[2] = biological target: EGFR L858R/T790M/C797S mutant (Homo sapiens (Human), UniProt P00533, C797S/L858R/T790M); assay: HotSpot radiometric kinase assay, EGFR L858R/T790M/C797S mutant; conditions: 10 μM ATP
Sequence of EGFR L858R/T790M/C797S mutant (P00533 25-1210 T790M/C797S/L858R): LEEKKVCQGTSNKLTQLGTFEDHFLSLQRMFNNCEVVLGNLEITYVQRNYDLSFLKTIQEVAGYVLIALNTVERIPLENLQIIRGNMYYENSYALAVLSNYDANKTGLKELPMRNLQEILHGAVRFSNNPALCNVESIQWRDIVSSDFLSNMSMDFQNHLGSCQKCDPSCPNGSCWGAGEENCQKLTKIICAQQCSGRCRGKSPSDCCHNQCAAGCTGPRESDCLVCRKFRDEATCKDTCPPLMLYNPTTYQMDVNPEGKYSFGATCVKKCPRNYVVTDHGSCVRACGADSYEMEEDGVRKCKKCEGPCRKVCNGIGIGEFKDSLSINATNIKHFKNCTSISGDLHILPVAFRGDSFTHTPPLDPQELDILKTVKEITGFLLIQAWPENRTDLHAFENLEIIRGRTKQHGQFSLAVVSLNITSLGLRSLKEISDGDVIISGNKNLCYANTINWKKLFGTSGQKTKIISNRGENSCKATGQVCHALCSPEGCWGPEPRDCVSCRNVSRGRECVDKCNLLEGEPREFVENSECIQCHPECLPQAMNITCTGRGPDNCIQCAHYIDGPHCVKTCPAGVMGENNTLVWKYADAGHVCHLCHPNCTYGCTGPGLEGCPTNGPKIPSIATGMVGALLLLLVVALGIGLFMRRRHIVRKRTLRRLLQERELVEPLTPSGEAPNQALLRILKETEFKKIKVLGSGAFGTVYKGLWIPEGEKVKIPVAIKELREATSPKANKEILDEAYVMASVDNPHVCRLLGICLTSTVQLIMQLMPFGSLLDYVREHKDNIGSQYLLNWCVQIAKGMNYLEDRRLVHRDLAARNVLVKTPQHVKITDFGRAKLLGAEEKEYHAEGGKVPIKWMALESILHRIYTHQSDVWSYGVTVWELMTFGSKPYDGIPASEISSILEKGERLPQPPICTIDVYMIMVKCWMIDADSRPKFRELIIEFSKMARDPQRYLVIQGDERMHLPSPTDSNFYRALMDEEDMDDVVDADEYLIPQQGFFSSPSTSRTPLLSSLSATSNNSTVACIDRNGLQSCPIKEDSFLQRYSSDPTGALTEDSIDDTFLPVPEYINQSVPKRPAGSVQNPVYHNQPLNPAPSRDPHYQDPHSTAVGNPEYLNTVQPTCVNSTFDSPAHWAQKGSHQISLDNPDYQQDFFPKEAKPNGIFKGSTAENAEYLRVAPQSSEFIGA
Procedure, shortened: as §1

[3] = biological target: EGFR WT (Homo sapiens (Human), UniProt P00533); assay: HotSpot radiometric kinase assay (Reaction Biology), EGFR WT; conditions: 10 μM ATP
Procedure, shortened: as §1

[4] = biological target: EGFR (D770_N771insNPG) (Homo sapiens (Human), UniProt P00533, INS770NPG); assay: HotSpot radiometric kinase assay, EGFR (D770_N771insNPG); conditions: 10 μM ATP, read-out: EGFR (Δ770_N771insNPG) IC50
Sequence of EGFR (D770_N771insNPG) (P00533 other isoform, or with tags, fused parts or gaps del 1-668/ins NPG behind 770 limits assumed): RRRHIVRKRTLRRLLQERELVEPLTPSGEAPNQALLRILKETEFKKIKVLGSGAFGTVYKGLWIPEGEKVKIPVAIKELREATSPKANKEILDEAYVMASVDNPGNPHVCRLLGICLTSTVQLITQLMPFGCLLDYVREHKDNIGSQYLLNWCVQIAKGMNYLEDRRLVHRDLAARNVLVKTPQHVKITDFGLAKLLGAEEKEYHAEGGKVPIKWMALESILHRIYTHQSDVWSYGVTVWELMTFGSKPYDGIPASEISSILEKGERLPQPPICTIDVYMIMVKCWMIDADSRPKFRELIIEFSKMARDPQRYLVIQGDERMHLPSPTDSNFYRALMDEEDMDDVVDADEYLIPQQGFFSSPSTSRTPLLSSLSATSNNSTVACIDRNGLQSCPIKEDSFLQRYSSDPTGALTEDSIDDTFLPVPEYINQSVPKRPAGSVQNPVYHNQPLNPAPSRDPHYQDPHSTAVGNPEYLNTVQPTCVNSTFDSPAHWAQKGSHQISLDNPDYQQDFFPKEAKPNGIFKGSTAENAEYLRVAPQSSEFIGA
Procedure, shortened: as §1

[5] = biological target: EGFR Δ746-750 mutant (Homo sapiens (Human), UniProt P00533, DEL746-750); assay: HotSpot radiometric kinase assay, EGFR Δ746-750 mutant; conditions: 10 μM ATP
Sequence of EGFR Δ746-750 mutant (P00533 other isoform, or with tags, fused parts or gaps del 1-668/del 746-750 limits assumed): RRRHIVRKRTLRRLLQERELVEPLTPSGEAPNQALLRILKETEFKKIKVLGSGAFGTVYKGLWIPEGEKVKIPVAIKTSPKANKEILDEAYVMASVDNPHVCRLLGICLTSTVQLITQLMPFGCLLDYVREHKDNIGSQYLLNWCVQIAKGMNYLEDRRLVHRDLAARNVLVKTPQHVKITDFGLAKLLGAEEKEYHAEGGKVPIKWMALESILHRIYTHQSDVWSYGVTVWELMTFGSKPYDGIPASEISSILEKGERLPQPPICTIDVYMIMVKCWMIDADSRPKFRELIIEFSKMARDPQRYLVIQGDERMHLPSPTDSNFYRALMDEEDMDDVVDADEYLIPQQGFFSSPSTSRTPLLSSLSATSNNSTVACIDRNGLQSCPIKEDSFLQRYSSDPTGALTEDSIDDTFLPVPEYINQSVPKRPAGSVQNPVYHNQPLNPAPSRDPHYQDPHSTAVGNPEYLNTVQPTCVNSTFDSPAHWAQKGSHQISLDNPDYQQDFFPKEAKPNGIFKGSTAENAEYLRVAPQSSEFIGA
Procedure, shortened: as §1

[6] = biological target: EGFR L858R mutant (Homo sapiens (Human), UniProt P00533, L858R); assay: HotSpot radiometric kinase assay, EGFR L858R mutant; conditions: 10 μM ATP
Procedure, shortened: as §1

[7] = biological target: CLK3 (Homo sapiens (Human), UniProt P49761); assay: Inhibition of CLK3 kinase activity evaluated at Nanosyn (ADP-Glo); conditions: ADP-Glo luminescence
Sequence of CLK3 (P49761 whole entry): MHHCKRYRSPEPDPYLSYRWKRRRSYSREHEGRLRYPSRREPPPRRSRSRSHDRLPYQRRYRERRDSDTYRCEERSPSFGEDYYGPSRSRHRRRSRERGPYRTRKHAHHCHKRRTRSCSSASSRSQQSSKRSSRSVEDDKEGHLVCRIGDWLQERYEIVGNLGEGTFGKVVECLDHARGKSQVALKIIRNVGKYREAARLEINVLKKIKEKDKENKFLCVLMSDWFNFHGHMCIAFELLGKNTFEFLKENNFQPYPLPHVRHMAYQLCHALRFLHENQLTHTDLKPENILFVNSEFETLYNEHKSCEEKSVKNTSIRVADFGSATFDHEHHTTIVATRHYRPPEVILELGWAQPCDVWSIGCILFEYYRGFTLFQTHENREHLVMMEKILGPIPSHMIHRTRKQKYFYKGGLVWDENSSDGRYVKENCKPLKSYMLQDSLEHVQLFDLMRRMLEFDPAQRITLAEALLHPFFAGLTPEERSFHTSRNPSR
Procedure, shortened: (§2)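 Kinase and substrate in pH 7.5 HEPES buffer (5 mM MgCl2, 0.01% Triton X-100, 0.1% BSA) with compound at 1% DMSO; reaction started with ATP, incubated for an assay-specific time. ADP formed detected by ADP-Glo luminescence; %-inhibition versus DMSO and no-enzyme controls.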

[8] = biological target: EGFR L858R/T790M mutant (Homo sapiens (Human), UniProt P00533, L858R/T790M); assay: HotSpot radiometric kinase assay, EGFR L858R/T790M mutant; conditions: 10 μM ATP
Sequence of EGFR L858R/T790M mutant (P00533 25-1210 T790M/L858R): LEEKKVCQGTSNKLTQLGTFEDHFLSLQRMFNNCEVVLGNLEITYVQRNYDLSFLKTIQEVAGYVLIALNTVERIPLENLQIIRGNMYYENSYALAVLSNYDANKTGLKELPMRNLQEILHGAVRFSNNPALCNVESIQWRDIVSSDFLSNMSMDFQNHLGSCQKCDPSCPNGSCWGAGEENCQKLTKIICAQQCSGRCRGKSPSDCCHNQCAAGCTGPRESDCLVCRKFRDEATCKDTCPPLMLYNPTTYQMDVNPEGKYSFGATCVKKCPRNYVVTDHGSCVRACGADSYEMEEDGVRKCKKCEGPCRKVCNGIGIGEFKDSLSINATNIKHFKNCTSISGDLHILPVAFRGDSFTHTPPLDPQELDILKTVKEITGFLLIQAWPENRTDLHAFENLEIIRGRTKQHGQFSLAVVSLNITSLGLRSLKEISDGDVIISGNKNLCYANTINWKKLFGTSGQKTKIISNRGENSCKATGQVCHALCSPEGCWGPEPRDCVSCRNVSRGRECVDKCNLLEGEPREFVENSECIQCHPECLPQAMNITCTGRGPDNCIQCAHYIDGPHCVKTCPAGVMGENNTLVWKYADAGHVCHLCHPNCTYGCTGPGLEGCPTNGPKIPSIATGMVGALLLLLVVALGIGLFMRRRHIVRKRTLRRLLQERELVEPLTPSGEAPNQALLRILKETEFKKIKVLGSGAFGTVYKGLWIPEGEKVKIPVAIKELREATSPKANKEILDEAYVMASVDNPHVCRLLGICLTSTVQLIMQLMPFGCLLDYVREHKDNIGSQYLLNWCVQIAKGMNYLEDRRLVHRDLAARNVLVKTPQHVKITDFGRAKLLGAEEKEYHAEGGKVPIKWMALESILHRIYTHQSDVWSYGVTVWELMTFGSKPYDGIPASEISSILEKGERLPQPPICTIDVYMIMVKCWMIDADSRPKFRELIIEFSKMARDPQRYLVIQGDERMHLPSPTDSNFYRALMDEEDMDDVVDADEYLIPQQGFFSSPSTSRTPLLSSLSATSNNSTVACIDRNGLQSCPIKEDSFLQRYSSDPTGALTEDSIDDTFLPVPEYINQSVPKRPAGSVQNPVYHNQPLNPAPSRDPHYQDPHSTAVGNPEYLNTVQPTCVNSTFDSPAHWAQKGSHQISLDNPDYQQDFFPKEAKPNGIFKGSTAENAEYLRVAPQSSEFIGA
Procedure, shortened: as §1

[9] = biological target: CLK4 (Homo sapiens (Human), UniProt Q9HAZ1); assay: Inhibition of CLK4 kinase activity evaluated at Nanosyn (ADP-Glo); conditions: ADP-Glo luminescence
Sequence of CLK4 (Q9HAZ1 whole entry): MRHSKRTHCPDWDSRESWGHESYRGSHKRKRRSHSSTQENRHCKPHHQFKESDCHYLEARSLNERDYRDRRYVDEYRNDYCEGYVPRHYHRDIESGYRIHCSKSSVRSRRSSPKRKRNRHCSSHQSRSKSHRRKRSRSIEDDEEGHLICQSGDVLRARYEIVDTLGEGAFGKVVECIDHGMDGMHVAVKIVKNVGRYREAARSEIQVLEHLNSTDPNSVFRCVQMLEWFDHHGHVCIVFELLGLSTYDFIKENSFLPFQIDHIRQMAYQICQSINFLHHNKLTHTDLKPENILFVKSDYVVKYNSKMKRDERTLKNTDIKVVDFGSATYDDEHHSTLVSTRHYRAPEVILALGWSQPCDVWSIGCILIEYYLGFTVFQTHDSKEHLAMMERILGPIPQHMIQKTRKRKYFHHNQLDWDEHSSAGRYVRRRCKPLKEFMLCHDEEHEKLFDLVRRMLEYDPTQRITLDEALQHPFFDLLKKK
Procedure, shortened: as §2

[10] = biological target: CLK2 (Homo sapiens (Human), UniProt P49760); assay: Inhibition of CLK2 kinase activity evaluated at Nanosyn (ADP-Glo); conditions: ADP-Glo luminescence
Procedure, shortened: as §2

[11] = biological target: CLK1 (Homo sapiens (Human), UniProt P49759); assay: Inhibition of CLK1 kinase activity evaluated at Nanosyn (ADP-Glo); conditions: ADP-Glo luminescence
Sequence of CLK1 (P49759 whole entry): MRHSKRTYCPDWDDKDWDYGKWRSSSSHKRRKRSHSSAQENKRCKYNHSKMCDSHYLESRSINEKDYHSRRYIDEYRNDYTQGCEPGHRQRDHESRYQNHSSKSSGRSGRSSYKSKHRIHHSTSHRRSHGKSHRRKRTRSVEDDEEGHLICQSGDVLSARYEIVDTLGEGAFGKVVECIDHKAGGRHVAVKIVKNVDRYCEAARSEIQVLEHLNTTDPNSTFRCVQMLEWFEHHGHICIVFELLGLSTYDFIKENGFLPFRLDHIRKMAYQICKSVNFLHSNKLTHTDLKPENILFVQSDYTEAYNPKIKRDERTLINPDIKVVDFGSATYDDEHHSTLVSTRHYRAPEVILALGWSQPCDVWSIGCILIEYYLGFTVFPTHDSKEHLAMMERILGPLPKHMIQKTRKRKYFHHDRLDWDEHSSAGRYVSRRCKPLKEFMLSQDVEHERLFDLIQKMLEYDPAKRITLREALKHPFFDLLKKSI
Procedure, shortened: as §2

IC50 [1] [nM]	IC50 [2] [nM]	IC50 [3] [nM]	IC50 [4] [nM]	IC50 [5] [nM]	IC50 [6] [nM]	IC50 [7] [nM]	IC50 [8] [nM]	IC50 [9] [nM]	IC50 [10] [nM]	IC50 [11] [nM]	Structure (SMILES)
2.17	0.18	27.8	57.8	1.77	4.75	306	0.31	2.46	3.17	2.31	CCOc1nn(CC(C)(C)O)c2c1/C=C/c1n[nH]c3ccc(cc13)-c1cnn(C)c1O[C@@H](C)CN(CC)C2 [Example 222, 1-[(10S,17E)-16-ethoxy-12-ethyl-8,10-dimethyl-2,8,10,11,12,13-hexahydro-14H-3,5-ethenotripyrazolo[3,4-f:3′,4′-j:4″,3″-n][1,4]oxazacyclopentadecin-14-yl]-2-methylpropan-2-ol]
20.2	1.76	220	95.3	33.4	16.7	1000	3.23	0.59	0.75	0.39	CSCn1ncc2c1O[C@@H](C)CN(C(C)C)Cc1c(c(C)nn1C)/C=C/c1n[nH]c3ccc-2cc13 [Example 164, (10S,17E)-10,14,16-trimethyl-8-[(methylsulfanyl)methyl]-12-(propan-2-yl)-2,10,11,12,13,14-hexahydro-8H-3,5-ethenotripyrazolo[3,4-f:3′,4′-j:4″,3″-n][1,4]oxazacyclopentadecine]
41.3	4.63	320	1630	39.4	39.6	12.1	1.58	0.61	0.02	0.19	C[C@H]1CN(C)Cc2c(c(OC3CCN(S(C)(=O)=O)CC3)nn2C)/C=C/c2n[nH]c3ccc(cc23)-c2cnn(C)c2O1 [Example 143, (10S,17E)-16-{[1-(methanesulfonyl)piperidin-4-yl]oxy}-8,10,12,14-tetramethyl-2,10,11, 12,13,14-hexahydro-8H-3,5-ethenotripyrazolo[3,4-f 3′,4′-j:4″,3″-n][1,4]oxazacyclopentadecine]
2870	> 1000	> 1000	> 1000	> 1000	400	1	> 1000	397	114	270	C[C@H]1CN(C)Cc2c(c(OCC(F)(F)F)nn2CCO)/C=C/c2n[nH]c3cc(F)c(cc23)-c2cnn(C)c2O1 [Example 211, 2-[(10S,17E)-19-fluoro-8,10,12-trimethyl-16-(2,2,2-trifluoroethoxy)-2,8,10,11,12,13-hexahydro-14H-3,5-ethenotripyrazolo[3,4-f:3′,4′-j:4″,3″- n][1,4]oxazacyclopentadecin-14-yl]ethan-1-ol]
1.26	2.17	5.72	15.8	1.22	1.56	17.2	0.48	1.04	0.23	0.5	CC(C)Oc1nn(CCO)c2c1/C=C/c1n[nH]c3ccc(cc13)-c1cnn(C)c1O[C@@H](CO)CN(C)C2 [Example 258, 2-{(10R,17E)-10-(hydroxymethyl)-8,12-dimethyl-16-[(propan-2-yl)oxy]-2,8,10,11,12,13-hexahydro-14H-3,5-ethenotripyrazolo[3,4-f:3′,4′-j:4″,3″-n][1,4]oxazacyclopentadecin-14-yl}ethan-1-ol]
3.87	0.42	154	139	16.9	52.3	237	0.57	5.31	7.14	5.27	CC(C)Oc1nn(CCO)c2c1/C=C/c1n[nH]c3ccc(cc13)-c1cnn(C)c1O[C@H](C)CN(C1CC1)C2 [Example 212, 2-{(10R,17E)-12-cyclopropyl-8,10-dimethyl-16-[(propan-2-yl)oxy]-2,8,10,11,12,13-hexahydro-14H-3,5-ethenotripyrazolo[3,4-f:3′,4′-j:4″,3″- n][1,4]oxazacyclopentadecin-14-yl}ethan-1-ol]
